Measurements from PubChem BioAssay (NCI).
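Test compounds were applied to cells in 96-well plates for 48 hours at 5 doses. TGI marks complete inhibition of growth.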

Experiments:
Assay in all cases: inhibition of tumour cell growth, NCI panel, 48 h
[1] = tested on: NCI/ADR-RES ovarian
[2] = tested on: SF-539 CNS
[3] = tested on: 786-0 renal
[4] = tested on: SNB-19 CNS
[5] = tested on: MDA-N
[6] = tested on: IGROV1 ovarian
[7] = tested on: NCI-H460 lung
[8] = tested on: SF-268 CNS
[9] = tested on: HCT-15 colon
[10] = tested on: T-47D breast

Compound	TGI [1] [µM]	TGI [2] [µM]	TGI [3] [µM]	TGI [4] [µM]	TGI [5] [µM]	TGI [6] [µM]	TGI [7] [µM]	TGI [8] [µM]	TGI [9] [µM]	TGI [10] [µM]
C#CCn1c(=O)c(C)cn(/C(=C\C(=O)OCC)C(=O)OCC)c1=O	17.1	4.25	> 100	39.4	22.2	15.3	8.06	35.7	8.23	5.95
CC(Oc1ccccc1Cl)C(=O)NN1C(=O)CSC1c1ccccc1 (stereo not given)	> 100	> 100	> 100	> 100	> 100	> 100	> 100	> 100	> 100	> 100
CC(C)C(C/C=C1\CC(CO)(COC(=O)C2CCCCC2)OC1=O)C(C)C (stereo not given)	45.1	36.3	28.9	31.4	59.3	39.5	76	33.5	38.8	48
O=C(c1cccs1)N1CCN(C(=O)c2cccs2)C1=S	59	4.84	12.4	32.7	14.8	19.6	19.1	20	17.7	23.8
Cc1ccccc1N=C(N)Nc1ccccc1C	> 100	> 100	> 100	> 100	> 100	> 100	> 100	> 100	> 100	> 100
O=C(O)COc1cc(-c2ccccc2)nc2cc(F)ccc12	> 100	> 100	> 100	> 100	> 100	> 100	> 100	> 100	> 100	> 100
CN(C)CCCNc1ccc2nnn3c4ccc(O)cc4c(=O)c1c23	21.8	19.6	16.9	23.7	19.9	17.9	14.1	16.3	19.7	40.9
O=C1OC[C@H]2[C@@H]1[C@H]1O[C@@H]2C2=C(CCC2)C1=O	> 100	> 100	> 100	> 100	> 100	> 100	> 100	> 100	> 100	> 100
CN(Cc1cnc2nc(N)nc(N)c2n1)c1ccc(C(=O)NC(CO)CCCO)cc1 (stereo not given)	> 100	> 100	> 100	> 100	> 100	> 100	> 100	> 100	> 100	> 100
